Assay results taken from patent publication US4466980A, “Thiaprostaglandin E1 derivatives, process for production thereof, and pharmaceutical use thereof” (Teijin Limited, priority 1980, dated 1984).
Converted amounts (≈) assume the structure as drawn.

Key:
platelet aggregation [1] = test: platelet aggregation inhibiting activity of prior 11-deoxy-7S-prostaglandins E1 (inventors' investigations); type: cell-based
[2] = tested on: blood pressure and heart beat rate of rats; test: hypotensive activity and heart beat rate, intravenous injection in anesthetized rats; type: in vivo, male wister rats; conditions: Rattus norvegicus, i.v.; for ED (10% increase of heart rate): read-out: H-ED10 (dosage causing a 10% increase of the heart rate); for ED (20% lowering of blood pressure): read-out: P-ED20 (dosage causing a 20% lowering of the mean blood pressure)
Procedure: (1) The actions of the thiaprostaglandin E1 derivatives of the invention on the blood pressure and heart beat rate of rats were examined by intravenous injection under anesthesia. Male wister rats weighing about 250 g were used. Urethane (500 mg/kg) and α-chloralose (100 mg/kg) were intraperitoneally administered to the rats. The rats were anesthetized and fixed in place. Each of the test compounds was dissolved in a small amount of ethanol and diluted with physiological saline to adjust the final ethanol concentration to not more than 5%. The solution was intravenously injected into the rats through a catheter inserted into the femoral vein. The blood pressure of the rats was measured by a pressure transducer through a catheter inserted into the carotid artery of the rats. The heart beat rate was determined from the blood pressure pulse. The action of the test compound of the blood pressure was expressed as the dosage (p-ED20, μg/kg) of the test compound which caused a 20% lowering of the mean blood pressure before administration of the compound. The action of the test compound on the heart rate was expressed as the dosage (H-ED10, μg/kg) of the test compound which caused a 10% increase of the heart rate from the heart beat rate before administration of the test compound.

platelet aggregation [3] = test: extra vivo inhibitory activity of platelet aggregation after oral administration; type: in vivo, guinea pigs (Hartley strain); conditions: Cavia porcellus; for inhibition at 3 mg/kg: 3 mg/kg p.o.; for inhibition at 10 mg/kg: 10 mg/kg p.o.
Procedure: The extra vivo platelet aggregation inhibitory activity of the 7-thiaprostaglandin E1 derivatives of the invention were measured by using guinea pigs. A test drug prepared as a 30% ethanol solution of each of the compounds of the invention in ethanol diluted with physiological saline and as a control 30% ethanol solution were orally adminstered in a dose of 1 ml/kg to Hartleystrain guinea pigs having a body weight of 350 to 450 g which had been fasted for 17 hours. 1 hour or 4 hours after the administration of the compound, blood was drawn off by the cardiac puncture using trisodium citrate so that the ratio of the blood to 3.8% trisodium citrate was 9:1. The blood was centrifuged at a speed of 700 rpm for 10 minutes. The upper layer was separated as plateletrich plasma (PRP). The lower layer was further centrifuged at a speed of 2800 rpm for 10 minutes. The upper layer was separated as platelet poor plasma (PPP). 250 microliters of the resulting PRP was taken into an aggregometer cuvette, and incubated at 37° C. for 2 minutes. Then, 25 microliters of a […] ADP disodium solution adjusted by dissolving with 0.1M tris-HCl buffer (ph 8.0) was added. The aggregation curve was recorded for 3 minutes. The maximum degree of aggregation of platelets within this time period was read, and the rate of inhibitor of platelet aggregation was calculated from the following equation. [formula] TC : the transmittance of a control group (to which only the 30% ethanol solution was administered),
TD : the transmittance of a drug administered group.

ethanol ulcer (stomach) = test: ethanol ulcer test (anti-ulcer action); type: in vivo, SD-strain rats
Procedure: An ethanol ulcer test was carried out by the following processure.
SD-strain rats (body weight 200 to 220 g; 7 weeks old) were fasted for 24 hours, and a solution of each of the test compounds in physiological saline buffered with phosphate buffer at pH 7.5 was orally administered. Thirty minutes after the administration, 75% ethanol was orally administered in a dose of 1 ml/kg. One hour later, the abdomen was incised to isolate the stomach. […] The total of these lengths was defined as the ulcer index. A control group was given physiological saline buffered with phosphate buffer (pH 7.5) and 75% ethanol.

[4] = tested on: blood pressure of conscious rats; test: action on blood pressure of conscious rats, oral; type: in vivo, male wister rats
Procedure: (2) The thiaprostaglandin E1 derivatives of the invention were orally administered to conscious rats, and their action on the blood pressure was examined.
Male wister rats weighing about 250 g were used as experimental animals. These rat had been fasted for 16 hours before the start of the experiment. A catheter was inserted into the femoral artery of the rats under ether anesthesia, and then the rats were restrained within a Bollman cage. After more than 1 hour from awakening, each of the test compounds was orally administered.
The test compound was dissolved in a small amount of ethanol, and then diluted with water to adjust the final concentration of ethanol to not more than 5%. The mean blood pressure was measured by means of a pressure transducer through the catheter inserted into the femoral artery.

[5] = tested on: blood pressure of DOCA hypertensive rats; test: action on blood pressure of conscious DOCA hypertensive rats, oral; type: in vivo, male wistar rats
Procedure: (3) The compound (No. 138) of the invention was orally adminstered to DOCA hypertensive rats (induced by deoxycholticosteron acetate) in conscious, and its action on the blood pressure was examined.
Male wistar rats weighing about 160 g were rendered hypertensive. Specifically, one kidney was removed from the rats, and DOCA was subcutaneously administered to the rats in a dose of 10 mg/kg twice a week. While the rats were allowed to drink a 1% aqueous solution of sodium chloride, they were kept for more than 4 weeks to induce hypertension. The average blood pressure was measured in the same way as described in (2) above.

platelet aggregation [6] = test: in vitro inhibitory activity of platelet aggregation (ADP); type: cell-based, rabbit (Japanese domestic white male); conditions: Oryctolagus cuniculus, rabbit PRP, 10 μM ADP, 37° C., read-out: IC50 (minimum concentration which inhibited more than 50% of platelet aggregation)
Procedure: The in vitro platelet aggregation imhibiting activity of the compounds of the invention were examined by using rabbits. Blood was withdrawn from the ear vein of Japanese domestic white male rabbits weighing 2.5 to 3.5 kg. A mixture of a 3.8% trisodium citrate solution and the blood in a ratio of 1:9 was centrifuged at a speed of 1000 rpm for 10 minutes. The upper layer was separated as platelet-rich plasma (PRP). The lower layer was further centrifuged at a speed of 2800 rpm for 10 minutes. The upper layer was separated as platelet-poor plasma (PPP). The number of platelets was adjusted to 6×10^5 /μl to 7×10^5 /μl by diluting the PRP with PPP. 25 microliters of the test compounds prepared as shown below was added in an amount of 25 to 250 microliters of PRP after the adjustment, and the mixture was pre-incubated at 37° C. for 2 minutes, and then 10 μM (final) of ADP was added. By using an aggregometer, changes in transmission were recorded.
The drug was dissolved in ethanol to a concentration of 10 mg/ml, and successively diluted with phosphate buffer (pH 7.4) prior to use.
The rate of inhibition of platelet aggregation was determined from the following equation. [formula] To : the transmittance of the system containing the phosphate buffer, T: the transmittance of the sytem to which the test drug was added.
The minimum concentration of the drug which inhibited more than 50% of platelet aggregation was shown as an IC50 value.

[7] = Rattus norvegicus, po, 100 μg/kg p.o., read-out: Ulcer inhibiting rate (%)

Question: Which “platelet aggregation inhibiting activity (in words)” value (platelet aggregation [1]) does the source give for `CCCC(C)C[C@H](O)/C=C/[C@H]1CCC(=O)[C@@H]1SCCCCCC(=O)O` (stereo partly drawn) [11-deoxy-17-methyl-7S-prostaglandin E1] here?
Answer: The value was “very weak”.

Question: For `CCCCC[C@H](O)/C=C/[C@H]1CCC(=O)[C@@H]1SCCCCCC(=O)O` [11-deoxy-7S-prostaglandin E1], which “platelet aggregation inhibiting activity (in words)” value (platelet aggregation [1]) is on record?
Answer: The value was “very weak”.

Question: With `CCCCC[C@H](O)/C=C/[C@H]1[C@H](O)CC(=O)[C@@H]1CCCCCCC(=O)O` [PGE1, prostaglandin E1] as the compound, how does the ED (10% increase of heart rate) [2] read?
Answer: Its ED (10% increase of heart rate) is > 10 µg/kg.

Question: What about the ED (20% lowering of blood pressure) [2] of the same compound?
Answer: The ED (20% lowering of blood pressure) was 1.21 µg/kg.

Question: And the inhibition at 3 mg/kg (platelet aggregation [3]; 1 hr)?
Answer: The inhibition at 3 mg/kg was 0%.

Question: What about the inhibition at 3 mg/kg (platelet aggregation [3]; 4 hr) of the same compound?
Answer: Its inhibition at 3 mg/kg is 25.9%.

Question: And the inhibition at 10 mg/kg (platelet aggregation [3]; 1 hr)?
Answer: Its inhibition at 10 mg/kg is 0%.

Question: What about the inhibition at 10 mg/kg (platelet aggregation [3]; 4 hr) of the same compound?
Answer: Its inhibition at 10 mg/kg is 16.9%.

Question: What about the “Ulcer index (mm)” value (ethanol ulcer (stomach); 30 μg/kg p.o.) of the same compound?
Answer: The value was 26.8 ± 12.5 mm.

Question: What about the “Ulcer index (mm)” value (ethanol ulcer (stomach); 100 μg/kg p.o., ** P < 0.01) of the same compound?
Answer: Its value is 1.0 ± 1.0 mm.

Question: And the inhibition at 0.03 mg/kg (ethanol ulcer (stomach); Rattus norvegicus, po, 30 μg/kg p.o., read-out: Ulcer inhibiting rate (%))?
Answer: Its inhibition at 0.03 mg/kg is 60.8%.

Question: And the inhibition at 0.1 mg/kg (ethanol ulcer (stomach); [7])?
Answer: The inhibition at 0.1 mg/kg was 98.5%.

Question: What does the source list for `COC(=O)CCCCCS[C@H]1C(=O)C[C@@H](O)[C@@H]1/C=C/[C@@H](O)C1CCCCC1` [Compound 138, 16,17,18,19,20-pentanor-15-cyclohexyl-7-thiaprostaglandin E1 methyl ester]?
Answer: ED (10% increase of heart rate) [2]: > 10 µg/kg; ED (20% lowering of blood pressure) [2]: 0.68 µg/kg; mean blood pressure ([4]; 1 mg/kg p.o., 0 min, in mmHg): 116 + 4; mean blood pressure ([4]; 1 mg/kg p.o., 10 min): 99 ± 6; mean blood pressure ([4]; 1 mg/kg p.o., 15 min): 114 ± 2; mean blood pressure ([4]; 1 mg/kg p.o., 30 min): 116 ± 4; mean blood pressure ([4]; 1 mg/kg p.o., 45 min): 119 ± 4; mean blood pressure ([4]; 1 mg/kg p.o., 60 min): 120 ± 4; mean blood pressure ([4]; 1 mg/kg p.o., 90 min): 118 ± 3; mean blood pressure ([4]; 1 mg/kg p.o., 120 min): 118 ± 3; mean blood pressure ([4]; 10 mg/kg p.o., 0 min): 118 ± 3; mean blood pressure ([4]; 10 mg/kg p.o., 10 min): 92 ± 9; mean blood pressure ([4]; 10 mg/kg p.o., 15 min): 95 ± 9; mean blood pressure ([4]; 10 mg/kg p.o., 30 min): 108 ± 6; mean blood pressure ([4]; 10 mg/kg p.o., 45 min): 111 ± 4; mean blood pressure ([4]; 10 mg/kg p.o., 60 min): 112 ± 3; mean blood pressure ([4]; 10 mg/kg p.o., 90 min): 114 ± 4; mean blood pressure ([4]; 10 mg/kg p.o., 120 min): 117 ± 4; hypotensive action (in words) ([4]; p.o., especially 10 mg/kg): long-lasting hypotensive action; average blood pressure ([5]; 0.1 mg/kg p.o., 0 min): 167 ± 8; average blood pressure ([5]; 0.1 mg/kg p.o., 10 min): 149 ± 12; average blood pressure ([5]; 0.1 mg/kg p.o., 15 min): 156 ± 8; average blood pressure ([5]; 0.1 mg/kg p.o., 30 min): 165 ± 7; average blood pressure ([5]; 0.1 mg/kg p.o., 45 min): 168 ± 7; average blood pressure ([5]; 0.1 mg/kg p.o., 60 min): 171 ± 10; average blood pressure ([5]; 0.1 mg/kg p.o., 90 min): 177 ± 11; average blood pressure ([5]; 0.1 mg/kg p.o., 120 min): 182 ± 13; average blood pressure ([5]; 0.3 mg/kg p.o., 0 min): 165 ± 14; average blood pressure ([5]; 0.3 mg/kg p.o., 10 min): 134 ± 12; average blood pressure ([5]; 0.3 mg/kg p.o., 15 min): 141 ± 8; average blood pressure ([5]; 0.3 mg/kg p.o., 30 min): 151 ± 7; average blood pressure ([5]; 0.3 mg/kg p.o., 45 min): 161 ± 9; average blood pressure ([5]; 0.3 mg/kg p.o., 60 min): 169 ± 9; average blood pressure ([5]; 0.3 mg/kg p.o., 90 min): 170 ± 12; average blood pressure ([5]; 0.3 mg/kg p.o., 120 min): 180 ± 10; hypotensive action (in words) ([5]; p.o., hypertensive rats): marked hypotensive action; inhibition at 3 mg/kg (platelet aggregation [3]; 1 hr): 64.9%; inhibition at 3 mg/kg (platelet aggregation [3]; 4 hr): 23.3%; inhibition at 10 mg/kg (platelet aggregation [3]; 1 hr): 94.1%; inhibition at 10 mg/kg (platelet aggregation [3]; 4 hr): 50%

Question: With `CCCCC[C@H](O)/C=C/[C@H]1CCC(=O)[C@@H]1SCCCCCC(=O)OC` as the compound, how does the “platelet aggregation inhibiting activity (in words)” value (platelet aggregation [1]) read?
Answer: Its value is “very weak”.

Question: What does the source list for `O=C(O)CCSCCC[C@H]1C(=O)C[C@@H](O)[C@@H]1/C=C/[C@@H](O)C1CCCCC1` [Compound 403, 16,17,18,19,20-pentanor-15-cyclohexyl-4-thiaprostaglandin E1]?
Answer: IC50 (platelet aggregation [6]): 2.8 µg/mL (≈ 7.28 µM); Ulcer index (mm) (ethanol ulcer (stomach); 100 μg/kg p.o., ** P < 0.01): 6.0 ± 3.8 mm; inhibition at 0.1 mg/kg (ethanol ulcer (stomach); [7]): 91.2%; antiulcer action (in words) (ethanol ulcer (stomach); p.o., Table 6): nearly the same antiulcer action as prostaglandin E1

Question: How did the “platelet aggregation inhibiting activity (in words)” value (platelet aggregation [1]) turn out when `CCCC(C)C[C@H](O)/C=C/[C@H]1CCC(=O)[C@@H]1SCCCCCC(=O)OC` (stereo partly shown) was run?
Answer: Its value is “very weak”.
